In US8470780B2, “Methods and compositions related to targeting wounds, regenerating tissue, and tumors” (Sanford-Burnham Medical Research Institute, priority 2006, dated 2013):
Bridges are numbered along the chain shown (N, C = ends). Where no end group is shown, it is not given here.

Legend:
CHO-K cells [1] = test: Internalization of fluorescein-labeled peptides by CHO-K cells; format: cell-based, Chinese hamster; conditions: for fluorescence and localization in CHO-K cells by confocal microscopy: FITC-conjugated peptides 10 μM, 4 hours; for accumulation in CHO-K cells: comparison of CHO-K and pgsA-745 cells
Experimental: (§1) To study peptide internalization, CHO-K cells or HUVEC seeded on plastic coverslips were incubated with 10 μM fluorescein-conjugated peptides for 30 min to 72 hours, washed 3 times with PBS, and fixed with 4% paraformaldehyde for 20 min at room temperature. After several washes with PBS, the nuclei were visualized by staining with DAPI, and the slides were mounted with ProLong Gold antifade reagent (Invitrogen, Carlsbad, Calif.). The images were acquired using Olympus IX81 inverted and Olympus Fluoview FV1000 confocal microscopes. Z-stack images were taken by confocal microscope every 1 μm through the cells.

[2] = tested on: human umbilical vein endothelial cells (HUVECs); test: Internalization of peptides by HUVECs; format: cell-based; conditions: 10 μM, 24 h
Experimental: as §1

pgsA-745 cells [3] = test: Internalization of peptides by pgsA-745 cells; format: cell-based, Chinese hamster; conditions: comparison of CHO-K and pgsA-745 cells
[4] = tested on: MDA-MB-235 tumor xenografts; test: Homing of fluorescein-conjugated peptides to tumor xenografts; format: in vivo, mice; conditions: intravenous, tumor collected 4 hours later; for homing to tumors and extravasation: fluorescence
Experimental: Fluorescein-conjugated peptides CAR, control peptide CAR2, CRK and control peptide KAREC were intravenously injected into mice with MDA-MB-235 tumor xenografts. Tumor tissue was collected 4 hours later and examined for the presence of the peptides. Blood vessels were stained with CD-31 antibody and the nuclei were stained with DAPI.
Fluorescein-conjugated peptides CAR, control peptide CAR2, CRK and control peptide KAREC were intravenously injected into mice with MDA-MB-235 tumor xenografts. Tumor tissue was collected 4 hours later and examined for the presence of the peptides. Adjacent tissue section were stained for blood vessels (CD-31), while the FITC-labeled peptide was first detected with rabbit anti-FITC followed by biotin-conjugated anti-rabbit IgG to confirm the source of fluorescent signal to be from the FITC-labeled peptide. The sections were then stained with hematoxylin-eosin.

tendon and skin wounds = test: Tissue distribution of fluorescein-labeled peptides after intravenous injection; format: in vivo, mice and rats; conditions: FITC conjugates; for fluorescent signal in the wounds: 4 and 8 hours after injection
Source text: Two types of injuries were used with patellar tendons: For phage screening in rats, patellar tendons were exposed through small skin incisions placed on the lateral side of the joint so that the skin wound and tendon wound were not in direct contact with each other. Six longitudinal, full-length incisions were made into the tendon. Full-thickness incision wounds, 1.5 cm in length, were made in skin on the back of the animal. The skin wounds were left uncovered without a dressing. For quantification of phage homing and peptide injections, two size 11 surgical scalpels were placed side-by-side and the central third of the patellar tendon was removed analogous to the graft used in anterior cruciate ligament reconstruction. Achilles tendons were wounded by making four longitudinal, full-length incisions into the tendon Skin wounds were 8 mm circular, full-thickness excision wounds, made to the skin with a biopsy punch. None of the procedures prevented the animals from bearing weight and moving immediately after the operation and without a noticeable […].
Peptides were synthesized with an automated peptide synthesizer by using standard solid-phase fluorenylmethoxycarbonyl chemistry. During synthesis, the peptides were labeled with fluorescein with an amino-hexanoic acid spacer. Each individual fluorescein-conjugated peptide was injected intravenously into the tail vein of rats or mice with wounds. The peptides were allowed to circulate for different periods of time, followed by heart perfusion. Tissues were embedded into OCT (Tissue-Tek) and processed for microscopy.
Frozen tissue sections were fixed in acetone for 10 min and incubated with 0.5% blocking reagent for 1 hour (NEN Life Sciences, Boston, Mass.). Tissue sections were incubated with the primary antibody overnight at 4° C. The following monoclonal (mAbs) and polyclonal antibodies (pAbs) were used: rabbit anti-T7-phage affinity-purified pAb (1:100), rat anti-mouse CD31 mAb (1:200; BD Pharmingen) and rabbit anti-FITC pAb (1:200, Invitrogen, Carlsbad, Calif.). The primary antibodies were detected with labeled secondary antibodies, and each staining experiment included sections stained with species-matched immunoglobulins as negative controls. The sections were washed several times with PBS, mounted in Vectashield Mounting Medium with DAPI (Vector Laboratories) and visualized under an inverted fluorescent or light microscope.

CHO-K cells [5] = test: FACS analysis of peptide binding to CHO-K cells; format: cell-based, Chinese hamster; conditions: for peptide binding to CHO-K cells: 5 μM peptide
Experimental: (§2) Peptide binding to cells was studied essentially as described above for phage. Peptides were tested at 5 μM concentration, with or without 5×10^9 phage. After incubation on ice for 30 min, the cells were washed and resuspended with PBS containing 2 μg/ml of propidium iodide (PI, Invitrogen, Carlsbad, Calif.) and analyzed using a FACScan flow cytometer (BD, San Jose, Calif.).

mitochondrial membranes = conditions: concentration of 10 μM; cited from earlier work
pgsA-745 cells [6] = test: FACS analysis of peptide binding to pgsA-745 cells; format: cell-based, Chinese hamster; conditions: 5 μM peptide
Experimental: as §2

Row | Substance | fluorescence and localization in CHO-K cells by confocal microscopy (CHO-K cells [1]) | accumulation in CHO-K cells (CHO-K cells [1]) | binding and internalization by HUVECs [2] | accumulation in pgsA-745 cells (pgsA-745 cells [3]) | homing detected with anti-FITC antibody [4] | homing to tumors and extravasation [4] | fluorescent signal in non-tumor tissues (liver, kidney, lung and spleen) (tendon and skin wounds) | fluorescent signal in the wounds (tendon and skin wounds) | peptide binding to CHO-K cells (CHO-K cells [5]) | binding and internalization by CHO-K cells (CHO-K cells [1]; fluorescein-labeled peptide) | also measured
1 | CARSKNKDC (disulfide 1-9 (inferred); not fully specified (N-terminus); also: FITC conjugate, site not given here) [tested as fluorescein (FITC) conjugate] | strong green fluorescence that mostly overlaps with nuclear DAPI staining | only binds to and is internalized by the CHO-K cells | binds to cells and appears to enter the cells co-localizing with the nuclei | only binds to and is internalized by the CHO-K cells | home to hypervascular regions surrounding the tumors and to tumor tissue | home to tumors and extravasate to tumor tissue | did not differ from that of the fluorescein-labeled CAR2 or KAREC peptides | strong fluorescent signal in the wounds | strong binding | – | time to accumulation inside the cells, overlapping with the nucleus (CHO-K cells [1]; fluorescein-labeled peptide): ≤ 30 min; inhibition of labeled CAR peptide binding to CHO-K cells by competitor (CHO-K cells [5]; excess unlabeled peptide or phage): inhibited the binding in a dose-dependent manner
2 | CARSTKATC [CAR2] | no detectable fluorescence | – | – | – | – | – | – | no accumulated fluorescence | bound only weakly | no binding or internalization | –
3 | CGKRK [reference compound] | overlap with the nuclei and the cytosol | accumulated in the cytosol and nuclei | – | accumulated in the cytosol and nuclei | – | – | – | – | – | – | effect of unlabeled competitor on uptake of fluorescein-labeled CAR peptide by CHO-K cells (CHO-K cells [1]; 10-molar excess of unlabeled peptide): did not detectably affect the uptake
4 | CRKDKC (not fully specified (N-terminus); cysteine pairing not given here; also: FITC conjugate, site not given here) [tested as fluorescein (FITC) conjugate] | no detectable fluorescence | – | binds to the cells, but does not internalize | – | home to hypervascular regions surrounding the tumors and to tumor tissue | home to tumors and extravasate to tumor tissue | did not differ from that of the fluorescein-labeled CAR2 or KAREC peptides | strong fluorescent signal in the wounds | – | bound to the cells, but was not detectably internalized | –
5 | D(KLAKLAK)2 (KLAKLAKKLAKLAKKLAKKLAKAAKKAA) [antimicrobial peptide which promotes disruption of mitochondrial membranes] | – | – | – | – | – | – | – | – | – | – | mitochondrial swelling (mitochondrial membranes): marked mitochondrial swelling
6 | KAREC [unrelated 5 amino-acid control peptide, reference compound] | no detectable fluorescence | – | – | – | – | – | – | no detectable signal in the wounds | no binding | – | peptide binding to pgsA-745 cells (pgsA-745 cells [6]): no binding
